# Data published in patent US5935972A, “Benzofuran derivatives as tachykinin antagonists” (Glaxo Group Limited, priority 1997, dated 1999).
# Where a name gives a salt, the structure may show the parent alone.
# System: radiation-induced emesis
# Test: radiation-induced emesis in the ferret
# Type: in vivo
# Settings: whole body irradiation 2 Grey, dose 0.3 mg/kg s.c. immediately after irradiation
# Procedure: In this model of emesis the onset of retching and vomiting occurs approximately 20 minutes after whole body irradiation (2 Grey.ident.200 Rads). The test compound is administered (e.g. i.p, p.o., i.v., s.c) immediately after irradiation and its effect on emesis determined by comparison with appropriate controls.
smiles,measurement,value
"Cc1nnnn1-c1cc(CN[C@H]2CCCN[C@H]2c2ccccc2)c2occc2c1 [Example 1, [5-(5-Methyl-tetrazol-1-yl)-benzofuran-7-ylmethyl]-(2S-phenyl-piperidin-3S-yl)-amine dihydrochloride]",inhibition of radiation-induced emesis,inhibited radiation-induced emesis
